The text below walks through data of patent US5622983A, “N-substituted cycloalkyl and polycycloalkyl α-substituted Trp-Phe- and phenethylamine derivatives” (Warner-Lambert Company, priority 1995, dated 1997).

Each structure is given as a SMILES string. Read-outs that look alike come from different tables or passages of the source. Where only a bound is given, the exact number is not on record here.

One experiment concerns the target T1, Central CCK Receptors (Mus musculus, UniProt P56481).
T1 sequence (P56481 1-453): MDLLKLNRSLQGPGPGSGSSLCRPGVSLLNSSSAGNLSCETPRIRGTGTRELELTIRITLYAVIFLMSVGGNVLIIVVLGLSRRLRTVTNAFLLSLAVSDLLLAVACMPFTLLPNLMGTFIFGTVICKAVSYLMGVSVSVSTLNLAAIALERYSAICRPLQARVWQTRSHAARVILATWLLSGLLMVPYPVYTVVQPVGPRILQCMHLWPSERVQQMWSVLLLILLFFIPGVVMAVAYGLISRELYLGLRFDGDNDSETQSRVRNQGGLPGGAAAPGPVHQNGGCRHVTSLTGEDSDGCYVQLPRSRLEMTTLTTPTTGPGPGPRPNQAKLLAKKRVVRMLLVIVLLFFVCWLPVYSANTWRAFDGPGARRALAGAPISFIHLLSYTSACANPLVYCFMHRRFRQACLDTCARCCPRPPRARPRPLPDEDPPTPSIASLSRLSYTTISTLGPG
The experiment in a line: Binding to central CCK receptors (tritiated-pentagastrin displacement, cerebral cortical membranes).

Experiment [1] in a line: Palatable Diet Feeding assay. It counts as in vivo, rat. To be noted: dose producing 50% of the maximum effect possible (zero food intake). The procedure:
In the Palatable Diet Feeding assay, adult male Hooded Lister rats weighing between 200-400 g were housed individually and trained to eat a palatable diet. This diet consisted of Nestles sweetened condensed milk, powdered rat food and rat water which when blended together set to a firm consistency. […] The intake of palatable diet was measured by weighing the food container before and after the 30-minute access period (limits of accuracy 0.1 g). Care was taken to collect and correct for any spillage of the diet. Rats had free access to pellet food and water except during the 30-minute test period.
After the training period, dose-response curves were constructed for CCK8 and several representative compounds of the present invention (n=8-10 rats per dose level).

[2] abbreviates: read-out: Binding to Central CCK Receptors Ki, displacement of 2 nM tritiated-pentagastrin, mouse cerebral cortical membranes.

As usually defined, the Ki is a measure of affinity in units of concentration, obtained from inhibition or displacement.

Description for Central CCK Receptors: The biological activity of compounds of the present invention was evaluated employing an initial screening test which rapidly and accurately measured the binding of the tested compound to known CCK receptor sites.
The resulting suspension was centrifuged, the supernate was discarded, and the pellet was washed by resuspension in Tris-HCl buffer followed by recentrifugation.
In saturation studies, cerebral cortical membranes were incubated at 23° C. for 120 minutes in a final volume of 500 μliter of Hepes incubation buffer (pH 7.2) together with 0.2-20 nM tritiated-pentagastrin (Amersham International, England).
In each case, the nonspecific binding was defined as that persisting in the presence of the unlabeled octapeptide CCK26-33 (10^-6 M).
Following incubation, radioactivity bound to membranes was separated from that free in solution by rapid filtration through Whatman GF/B filters and washed three times with 4 mL of ice cold Tris-HCl buffer.
The specific binding to CCK receptor sites was defined as the total bound tritiated-pentagastrin minus the amount of tritiated-pentagastrin bound in the presence of 10^-6 octapeptide, CCK26-33.
The inhibition constant (Ki) of the test compound was then calculated according to the Cheng-Prusoff equation: [formula] where [L] is the concentration of radiolabel and Ka is the equilibrium dissociation constant.

With `CC(Cc1c[nH]c2ccccc12)(NC(=O)OC12CC3CC(CC(C3)C1)C2)C(=O)NCCc1ccccc1` (racemic) [Example 1, (±)-Tricyclo[3.3.1^3,7]dec-1-yl [1-(1H-indol-3-ylmethyl)-1-methyl-2-oxo-2-[(2-phenylethyl)amino]ethyl]carbamate], the Ki on Central CCK Receptors (setting [2]) stood at 1230 nM.
Regarding `CC(Cc1c[nH]c2ccccc12)(NC(=O)O[C@@H]1CCCC[C@H]1Cl)C(=O)NCCc1ccccc1` (mixture of isomers) [Example 2, (±)-Trans-2-chlorocyclohexyl [1-(1H-indol-3-ylmethyl)-1-methyl-2-oxo-2-[(2-phenylethyl)amino]ethyl]carbamate], the “Inhibition of Feeding on Rat Palatable Diet Assay I.P. MPE50” value in experiment [1] came to 9.6 mg/kg. At Central CCK Receptors, the Ki worked out at 3150 nM.
On to `CC(Cc1c[nH]c2ccccc12)(NC(=O)O[C@@H]1CCCC[C@H]1Cl)C(=O)NC(CO)Cc1ccccc1` (mixture of isomers) [Example 3, (±)-Trans-2-chlorocyclohexyl [2-[[1-(hydroxymethyl)-2-phenyethyl]amino]-1-(1H-indol-3-ylmethyl)-1-methyl-2-oxoethyl]carbamate. (D-tryptophan residue; L-phenylalanine residue).], for which the “Inhibition of Feeding on Rat Palatable Diet Assay I.P. MPE50” value in experiment [1] came out at 30.7 mg/kg. The Ki on Central CCK Receptors (setting [2]) turned out to be 260 nM.
As for `CC(Cc1c[nH]c2ccccc12)(NC(=O)OC1CC2CCC1(C)C2(C)C)C(=O)NCCc1ccccc1` (racemic) [Example 7, (±)-Endo-1,7,7-trimethylbicyclo[2.2.1]hept-2-yl-[1-(1H-indol-3-ylmethyl)-1-methyl-2-oxo-2-[(2-phenylethyl)amino]ethyl]-carbamate], the Ki at Central CCK Receptors (setting [2]) was determined as 760 nM.
On the same count and under the same terms, the same measure for `CC(Cc1c[nH]c2ccccc12)(NC(=O)OC1CC2CCC1(C)C2(C)C)C(=O)NCCc1ccccc1` (racemic) [Example 8, (±)-Exo-1,7,7-trimethylbicyclo[2.2.1]hept-2-yl-[1-(1H-indol-3-ylmethyl)-1-methyl-2-oxo-2-[(2-phenylethyl)amino]ethyl]-carbamate]: 840 nM; for `CC(Cc1c[nH]c2ccccc12)(NC(=O)OC1CC2CCC1C2)C(=O)NCCc1ccccc1` (racemic) [Example 9, (±)-Exo-bicyclo[2.2.1]hept-2-yl [1-(1H-indol-3-ylmethyl)-1-methyl-2-oxo-2-[(2-phenylethyl)amino]ethyl]carbamate]: 7500 nM.
Turning to `CC(Cc1c[nH]c2ccccc12)(NC(=O)OC1CC2CCC1C2)C(=O)NCCc1ccccc1` (racemic) [Example 10, (±)-Endo-bicyclo[2.2.1]hept-2-yl [1-(1H-indol-3-ylmethyl)-1-methyl-2-oxo-2-[(2-phenylethyl)amino]ethyl]carbamate], the Ki at Central CCK Receptors (setting [2]) turned out to be 8800 nM.
`CC(Cc1c[nH]c2ccccc12)(NC(=O)O[C@@H]1CCCC[C@H]1Cl)C(=O)NC(CO)Cc1ccccc1` (mixture of isomers) [Example 14, (±)-trans-2-Chlorocyclohexyl-[2-[[1-(hydroxymethyl)-2-phenylethyl]amino]-1-(1H-indol-3ylmethyl)-1-methyl-2-oxoethyl]carbamate]: in experiment [1], the “Inhibition of Feeding on Rat Palatable Diet Assay I.P. MPE50” value was 19.5 mg/kg. Also, on Central CCK Receptors (setting [2]), the Ki is 10500 nM.
With `CC(Cc1c[nH]c2ccccc12)(NC(=O)OC1C2CC3CC(C2)CC1C3)C(=O)NCC(NC(=O)C1CC1C(=O)O)c1ccccc1` (racemic) [Example 32, 2-[[[2-[[3-(1H-indol-3-yl)-2-methyl-1-oxo-2-[[(tricyclo-[3.3.1.1^3,7]dec-2-yloxy)carbonyl]amino]propyl]amino]-1-phenylethyl]amino]carbonyl]cyclopropanecarboxylic acid (cyclopropane ring is trans-(±)othercentersare R)], the Ki at Central CCK Receptors (setting [2]) worked out at 5.1 nM.
In the case of `C[C@](Cc1c[nH]c2ccccc12)(NC(=O)CC12CC3CC(CC(C3)C1)C2)C(=O)N[C@H](CO)Cc1ccccc1` (relative stereo) [Example 5, [R-(R*,S*)]-N-[1-(hydroxymethyl)-2-phenylethyl]-α-methyl-α-[[tricyclo[3.3.1.1^3,7]dec-1-ylacetyl)-amino]-1H-indole-3-propanamide], the “Inhibition of Feeding on Rat Palatable Diet Assay I.P. MPE50” value in experiment [1] is 33.6 mg/kg. At Central CCK Receptors (setting [2]), the Ki turned out to be 2230 nM.
Regarding `CC1CCCCC1OC(=O)NC(C)(Cc1c[nH]c2ccccc12)C(=O)NCC(NC(=O)CCC(=O)O)c1ccccc1` (single isomer, unassigned) [Example 40, Butanoic acid, 4-[[2-[[3-(1H-indol-3-yl)-2-methyl-2-[[[(2-methyl-1-cyclohexyl)oxy]carbonyl]amino]-1-oxopropyl]amino]-1-phenylethyl]amino]-4-oxo-[1R-[1α[R*(R*)]2β]]-((-)-isomer)], the Ki on Central CCK Receptors (setting [2]) amounted to 3.9 nM.
The same measure, in the same setting: the figure for `CC1CCCCC1OC(=O)NC(C)(Cc1c[nH]c2ccccc12)C(=O)NCC(NC(=O)C=CC(=O)O)c1ccccc1` (single isomer, unassigned) [Example 41, 2-Butenoic acid, 4-[[2-[[3-(1H-indol-3-yl)-2-methyl-2-[[[(2-methyl-1-cyclohexyl)oxy]carbonyl]amino]-1-oxopropyl]amino]-1-phenylethyl]amino]-4-oxo-, [1R -[1α[R*(R*)], 2β]]-((-)-isomer)] is 0.29 nM; for `CC1CCCCC1OC(=O)NC(C)(Cc1c[nH]c2ccccc12)C(=O)NC(CNC(=O)C=CC(=O)O)Cc1ccccc1` (single isomer, unassigned) [Example 43, 2-Butenoic acid, 4-[[2-[[3-)1H-indol-3-yl)-2-methyl-2-[[[(2-methyl-1-cyclohexyl)oxy]carbonyl]amino]-1-oxopropyl]amino]-3-phenylpropyl]amino]-4-oxo-[IR[1α[R*(S*)], 2β]]-((-)-isomer)] it is 4 nM.
Regarding `CC(Cc1c[nH]c2ccccc12)(NC(=O)OC1CCCCC1Cl)C(=O)NC(COC(=O)CCC(=O)O)Cc1ccccc1` (stereo not drawn) [Example 4, 2-[[2-[[[2-chlorocyclohexyl)oxy]-carbonyl]amino]-3-(1H-indol-3-yl)-2-methyl-1-oxo-propyl]amino]-3-phenylpropyl butanedioate], the “Inhibition of Feeding on Rat Palatable Diet Assay I.P. MPE50” value in experiment [1] is reported as above 20 mg/kg. In addition, the Ki on Central CCK Receptors (setting [2]) was 170 nM.
On Central CCK Receptors, `C[C@](Cc1c[nH]c2ccccc12)(NC(=O)OC1CC2CC3CC(C2)C1C3)C(=O)N[C@H](CO)Cc1ccccc1` (stereo partly drawn) [Example 11] yielded an inhibitory constant (Ki) of 54 nM.
With `CC(Cc1c[nH]c2ccccc12)(NC(=O)OC1CC2CC3CC(C2)C1C3)C(=O)NC(COC(=O)CCC(=O)O)Cc1ccccc1` (stereo not drawn) [Example 12, 2-[3-1H-indol-3-yl)-2-methyl-2-[[[(octahydro-2,5-methano-1H-inden-7-yl)oxy]carbonyl]amino]-1-oxopropyl]-3-phenylpropyl butanedioate], the Ki at Central CCK Receptors (setting [2]) stood at 85 nM.
For the compound `CC(Cc1c[nH]c2ccccc12)(NC(=O)OC1C2CC3CC(C2)CC1C3)C(=O)NC(CO)Cc1ccccc1` (stereo not drawn) [Example 15, [R-(R*,S*)]-Tricyclo[3.3,1.1^3,7]dec-2-yl-[2-[[1-(hydroxymethyl)-2-phenylethyl]amino]-1-(1H-indol-3-ylmethyl)-1-methyl-2-oxoethyl]carbamate], the “Inhibition of Feeding on Rat Palatable Diet Assay I.P. MPE50” value in experiment [1] is given as 15.7 mg/kg. Also, on Central CCK Receptors (setting [2]), the Ki stood at 26 nM.
`CC(Cc1c[nH]c2ccccc12)(NS(=O)(=O)CC12CCC(CC1=O)C2(C)C)C(=O)NC(CO)Cc1ccccc1` (stereo not drawn) [Example 18, α-[[[(7,7-dimethyl-2-oxobicyclo[2.2.1]-hept-1-yl)-methyl]sulfonyl]amino]-N-[1-(hydroxymethyl)-2-phenylethyl]-α-methyl-1H-indole-3-propanamide-(Trpcenter R, phenylalanylcenter S)]: on Central CCK Receptors (setting [2]), the Ki stood at 21000 nM.
Take `CC(Cc1c[nH]c2ccccc12)(NC(=O)OC1C2CC3CC(C2)CC1C3)C(=O)NC(CNC(=O)CCC(=O)O)Cc1ccccc1` (stereo not drawn) [Example 19, [R-(R*,S*)]-4-[[2-[[3-(1H-indol-3-yl)-2-methyl-1-oxo-2-[[(tricyclo[3.3.1.1^3,7]dec-2-yloxy)carbonyl]amino]propyl]amino]-3-phenylpropyl]amino]-4-oxobutanoic acid]: at Central CCK Receptors (setting [2]), the inhibitory constant (Ki) amounted to 14 nM.
For the compound `CC(Cc1c[nH]c2ccccc12)(NC(=O)OC1C2CC3CC(C2)CC1C3)C(=O)NC(CNC(=O)C=CC(=O)O)Cc1ccccc1` (stereo not drawn) [Example 19A, [R-(R*,S*)]-4-[[2-(1H-Indol-3-yl)-2-methyl-1-oxo-2-[[tricyclo[3.3.1.1^3,7]dec-2-yloxylcarbonyl]amino]propyl]-amino]-3-phenylpropyl]amino]-4-oxo-2-butenoic acid], on Central CCK Receptors (setting [2]), the Ki stood at 0.08 nM.
For `CC(Cc1c[nH]c2ccccc12)(NC(=O)OC1C2CC3CC(C2)CC1C3)C(=O)NCC(NC(=O)CCc1nn[nH]n1)c1ccccc1` (stereo not drawn) [Example 33, Tricyclo[3.3.1.1^3,7]dec-2-yl [R,(R*,S*]-[1-(1H-indol-3-ylmethyl)-1-methyl-2-oxo-2-[[2-[[1-oxo-3-(1H -tetrazol-5-yl)propyl]amino]-2-phenylethyl]-amino]ethyl]carbamic acid ester], the inhibitory constant (Ki) on Central CCK Receptors (setting [2]) is 6 nM.
